# From patent US20240368173A1, “TRICYCLIC GPR65 MODULATORS” (PATHIOS THERAPEUTICS LIMITED, priority 2021, published 2024)
# Where two headings read alike, the source gives them in different places.
# Molecular target: human recombinant GPR65 (Homo sapiens, UniProt Q8IYL9)
# Assay: Human GPR65 cAMP HTRF antagonist assay
# Assay type: cell-based
# Summary of the method: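 Antagonism measured as suppression of the cAMP rise when pH is dropped to 7.2 (control wells pH 7.9) in 1321N1 cells stably carrying human GPR65. Cells in KRH with 1 mM IBMX and 200 μM EDTA saw compound 30 min, then acid stimulation 30 min; HTRF cAMP detection, normalised, 4-parameter logistic IC50.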
# [1] = 1321N1-hrGPR65 cells, cAMP HTRF, assay pH 7.2, read-out: hGPR65 IC50 (Activity of selected compounds according to the invention)
# Chain of human recombinant GPR65 (Q8IYL9 whole entry): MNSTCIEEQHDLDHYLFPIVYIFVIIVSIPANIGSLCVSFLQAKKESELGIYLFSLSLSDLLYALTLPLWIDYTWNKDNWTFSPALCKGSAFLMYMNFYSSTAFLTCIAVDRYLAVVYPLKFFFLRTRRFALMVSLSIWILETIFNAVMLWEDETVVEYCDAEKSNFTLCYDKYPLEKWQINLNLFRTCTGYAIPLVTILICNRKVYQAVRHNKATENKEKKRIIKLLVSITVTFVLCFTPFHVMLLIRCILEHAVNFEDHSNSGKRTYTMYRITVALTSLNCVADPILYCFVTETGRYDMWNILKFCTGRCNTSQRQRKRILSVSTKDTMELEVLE
smiles,measurement,setting,value
"CO[C@H]1CC[C@H](Oc2ccc(-c3cc(F)c(NC(=O)N4[C@H]5CC[C@@H]4c4n[nH]c(=O)cc4C5)cc3Cl)cn2)CC1 [Compound 337, (6S,9R)-N-(5-chloro-2-fluoro-4-(6-(((1r,4r)-4-methoxycyclohexyl)oxy)pyridin-3-yl)phenyl)-3-oxo-3,5,6,7,8,9-hexahydro-2H-6,9-epiminocyclohepta[c]pyridazine-10-carboxamide]",IC50,,< 500 nM
"O=C(Nc1cc(F)c(-c2ccc(F)nc2)cc1F)N1[C@H]2CC[C@@H]1c1n[nH]c(=O)cc1C2 [Compound 244, (6S,9R)-N-(2,5-Difluoro-4-(6-fluoropyridin-3-yl)phenyl)-3-oxo-3,5,6,7,8,9-hexahydro-2H-6,9-epiminocyclohepta[c]pyridazine-10-carboxamide]",IC50,,< 500 nM
"O=C(Nc1cc(Cl)c(-c2cncnc2)cc1F)N1[C@H]2CC[C@@H]1c1n[nH]c(=O)cc1C2 [Compound 137, (6S,9R)-N-(5-Chloro-2-fluoro-4-(pyrimidin-5-yl)phenyl)-3-oxo-3,5,6,7,8,9-hexahydro-2H-6,9-epiminocyclohepta[c]pyridazine-10-carboxamide]",IC50,[1],500 to 5000 nM
"O=C(Nc1cc(Cl)c(C(F)(F)F)cc1F)N1[C@H]2CC[C@@H]1c1c[nH]c(=O)nc1C2 [Compound 24, (5R,8S)-N-(5-Chloro-2-fluoro-4-(trifluoromethyl)phenyl)-2-oxo-3,5,6,7,8,9-hexahydro-2H-5,8-epiminocyclohepta[d]pyrimidine-10-carboxamide]",IC50,,< 500 nM
"CS(=O)(=O)NCc1cccc(-c2cc(F)c(NC(=O)N3[C@H]4CC[C@@H]3c3n[nH]c(=O)cc3C4)cc2Cl)c1 [Compound 203, (6S,9R)-N-(2-Chloro-5-fluoro-3′-(methylsulfonamidomethyl)-[1,1′-biphenyl]-4-yl)-3-oxo-3,5,6,7,8,9-hexahydro-2H-6,9-epiminocyclohepta[c]pyridazine-10-carboxamide]",IC50,[1],500 to 5000 nM
"O=C(Nc1cc(Cl)c(-c2ccccn2)cc1F)N1[C@H]2CC[C@@H]1c1n[nH]c(=O)cc1C2 [Compound 195, (6S,9R)-N-(5-Chloro-2-fluoro-4-(pyridin-2-yl)phenyl)-3-oxo-3,5,6,7,8,9-hexahydro-2H-6,9-epiminocyclohepta[c]pyridazine-10-carboxamide]",IC50,,< 500 nM
"O=C(Nc1cc(Cl)c(-c2cncc(CO)c2)cc1F)N1[C@H]2CC[C@@H]1c1n[nH]c(=O)cc1C2 [Compound 128, (6S,9R)—N-(5-Chloro-2-fluoro-4-(5-(hydroxymethyl)pyridin-3-yl)phenyl)-3-oxo-3,5,6,7,8,9-hexahydro-2H-6,9-epiminocyclohepta[c]pyridazine-10-carboxamide]",IC50,[1],500 to 5000 nM
"O=C(Nc1cc(Cl)c(-c2ccc3n[nH]nc3c2)cc1F)N1[C@H]2CC[C@@H]1c1n[nH]c(=O)cc1C2 [Compound 140, (6S,9R)-N-(4-(2H-Benzo[d][1,2,3]triazol-5-yl)-5-chloro-2-fluorophenyl)-3-oxo-3,5,6,7,8,9-hexahydro-2H-6,9-epiminocyclohepta[c]pyridazine-10-carboxamide]",IC50,[1],500 to 5000 nM
"O=C(Nc1ccc(C(F)(F)F)c(Br)c1)N1C2CCC1c1n[nH]c(=O)cc1C2 (racemic) [Compound 3, (±)-N-(3-Bromo-4-(trifluoromethyl)phenyl)-3-oxo-3,5,6,7,8,9-hexahydro-2H-6,9-epiminocyclohepta[c]pyridazine-10-carboxamide]",IC50,,< 500 nM
"O=C(Nc1cc(Cl)c(-c2ccccc2)cc1F)N1[C@H]2CC[C@@H]1c1c[nH]c(=O)cc1C2 [Compound 251, (6S,9R)-N-(2-Chloro-5-fluoro-[1,1′-biphenyl]-4-yl)-3-oxo-3,5,6,7,8,9-hexahydro-2H-6,9-epiminocyclohepta[c]pyridine-10-carboxamide]",IC50,,< 500 nM
"O=C(Nc1nnc(C2CCCCC2)s1)N1[C@H]2CC[C@@H]1c1ccnc(F)c1C2 [Compound 285, (5R,8S)—N-(5-cyclohexyl-1,3,4-thiadiazol-2-yl)-1-fluoro-6,7,8,9-tetrahydro-5H-5,8-epiminocyclohepta[c]pyridine-10-carboxamide]",IC50,,< 500 nM
"Cc1cnccc1-c1cc(F)c(NC(=O)N2[C@H]3CC[C@@H]2c2n[nH]c(=O)cc2C3)cc1Cl [Compound 125, (6S,9R)-N-(5-Chloro-2-fluoro-4-(3-methylpyridin-4-yl)phenyl)-3-oxo-3,5,6,7,8,9-hexahydro-2H-6,9-epiminocyclohepta[c]pyridazine-10-carboxamide]",IC50,,< 500 nM
"O=C(Nc1cc(Br)c(C(F)(F)F)cc1F)N1[C@H]2CC[C@@H]1c1c[nH]c(=O)nc1C2 [Compound 28, (5R,8S)-N-(5-Bromo-2-fluoro-4-(trifluoromethyl)phenyl)-2-oxo-3,5,6,7,8,9-hexahydro-2H-5,8-epiminocyclohepta[d]pyrimidine-10-carboxamide]",IC50,,< 500 nM
"O=C(Nc1cc(Cl)c(-c2cncc(F)c2)cc1F)N1[C@H]2CC[C@@H]1c1c[nH]c(=O)cc1C2 [Compound 201, (6S,9R)-N-(5-Chloro-2-fluoro-4-(5-fluoropyridin-3-yl)phenyl)-3-oxo-3,5,6,7,8,9-hexahydro-2H-6,9-epiminocyclohepta[c]pyridine-10-carboxamide]",IC50,,< 500 nM
"O=C(Nc1cc(Cl)c(-c2cc(F)cnc2F)cc1F)N1[C@H]2CC[C@@H]1c1n[nH]c(=O)cc1C2 [Compound 182, (6S,9R)-N-(5-Chloro-4-(2,5-difluoropyridin-3-yl)-2-fluorophenyl)-3-oxo-3,5,6,7,8,9-hexahydro-2H-6,9-epiminocyclohepta[c]pyridazine-10-carboxamide]",IC50,,< 500 nM
"CO[C@H]1C[C@H](Oc2ccc(-c3cc(F)c(NC(=O)N4[C@H]5CC[C@@H]4c4c[nH]c(=O)cc4C5)cc3Cl)cn2)C1 [Compound 317, (6S,9R)-N-(5-Chloro-2-fluoro-4-(6-((1r,3R)-3-methoxycyclobutoxy)pyridin-3-yl)phenyl)-3-oxo-3,5,6,7,8,9-hexahydro-2H-6,9-epiminocyclohepta[c]pyridine-10-carboxamide]",IC50,,< 500 nM
"O=C(Nc1cc(Cl)c(-c2ccc(OCCF)nc2)cc1F)N1[C@H]2CC[C@@H]1c1n[nH]c(=O)cc1C2 [Compound 291, (6S,9R)-N-(5-Chloro-2-fluoro-4-(6-(2-fluoroethoxy)pyridin-3-yl)phenyl)-3-oxo-3,5,6,7,8,9-hexahydro-2H-6,9-epiminocyclohepta[c]pyridazine-10-carboxamide]",IC50,,< 500 nM
"Cc1nc2cc(-c3cc(F)c(NC(=O)N4[C@H]5CC[C@@H]4c4n[nH]c(=O)cc4C5)cc3Cl)ccc2o1 [Compound 234, (6S,9R)-N-(5-Chloro-2-fluoro-4-(2-methylbenzo[d]oxazol-5-yl)phenyl)-3-oxo-3,5,6,7,8,9-hexahydro-2H-6,9-epiminocyclohepta[c]pyridazine-10-carboxamide]",IC50,,< 500 nM
"CN(C)CCOc1ccc(-c2cc(F)c(NC(=O)N3[C@H]4CC[C@@H]3c3ccnc(F)c3C4)cc2Cl)cn1 [Compound 301, (5R,8S)-N-(5-Chloro-4-(6-(2-(dimethylamino)ethoxy)pyridin-3-yl)-2-fluorophenyl)-1-fluoro-6,7,8,9-tetrahydro-5H-5,8-epiminocyclohepta[c]pyridine-10-carboxamide]",IC50,,< 500 nM
"O=C(Nc1cc(Cl)c(C(F)(F)F)cc1F)N1[C@@H]2CC[C@H]1[C@@H](F)c1c2ccnc1F [Compound 296, (5R,8S,9S)-N-(5-Chloro-2-fluoro-4-(trifluoromethyl)phenyl)-1,9-difluoro-6,7,8,9-tetrahydro-5H-5,8-epiminocyclohepta[c]pyridine-10-carboxamide]",IC50,,< 500 nM
"O=C(Nc1cc(Cl)c(-c2ccc(OCCC(F)(F)F)nc2)cc1F)N1[C@H]2CC[C@@H]1c1c[nH]c(=O)cc1C2 [Compound 332, (6S,9R)-N-(5-Chloro-2-fluoro-4-(6-(3,3,3-trifluoropropoxy)pyridin-3-yl)phenyl)-3-oxo-3,5,6,7,8,9-hexahydro-2H-6,9-epiminocyclohepta[c]pyridine-10-carboxamide]",IC50,,< 500 nM
"Cn1ncc2c(-c3cc(F)c(NC(=O)N4[C@H]5CC[C@@H]4c4n[nH]c(=O)cc4C5)cc3Cl)cccc21 [Compound 120, (6S,9R)-N-(5-Chloro-2-fluoro-4-(1-methyl-1H-indazol-4-yl)phenyl)-3-oxo-3,5,6,7,8,9-hexahydro-2H-6,9-epiminocyclohepta[c]pyridazine-10-carboxamide]",IC50,,< 500 nM
"O=C(Nc1cc(Cl)c(C(F)(F)F)cc1F)N1C2CC[C@@H]1c1ccnc(F)c1C2O (mixture of isomers) [Compound 204, (±)—(R)—N-(5-chloro-2-fluoro-4-(trifluoromethyl)phenyl)-1-fluoro-9-hydroxy-6,7,8,9-tetrahydro-5H-5,8-epiminocyclohepta[c]pyridine-10-carboxamide]",IC50,[1],500 to 5000 nM
"O=C(Nc1cc(Cl)c(-c2cccc3nonc23)cc1F)N1[C@H]2CC[C@@H]1c1n[nH]c(=O)cc1C2 [Compound 210, (6S,9R)-N-(4-(Benzo[c][1,2,5]oxadiazol-4-yl)-5-chloro-2-fluorophenyl)-3-oxo-3,5,6,7,8,9-hexahydro-2H-6,9-epiminocyclohepta[c]pyridazine-10-carboxamide]",IC50,,< 500 nM
"CC(C)COc1ccc(-c2cc(F)c(NC(=O)N3[C@H]4CC[C@@H]3c3c[nH]c(=O)cc3C4)cc2Cl)cn1 [Compound 335, (6S,9R)-N-(5-Chloro-2-fluoro-4-(6-isobutoxypyridin-3-yl)phenyl)-3-oxo-3,5,6,7,8,9-hexahydro-2H-6,9-epiminocyclohepta[c]pyridine-10-carboxamide]",IC50,,< 500 nM
"O=C(Nc1cc(Cl)c(-c2ccc(OCC3CC3)nc2)cc1F)N1[C@H]2CC[C@@H]1c1n[nH]c(=O)cc1C2 [Compound 318, (6S,9R)-N-(5-Chloro-4-(6-(cyclopropylmethoxy)pyridin-3-yl)-2-fluorophenyl)-3-oxo-3,5,6,7,8,9-hexahydro-2H-6,9-epiminocyclohepta[c]pyridazine-10-carboxamide]",IC50,,< 500 nM
"N#Cc1cnc(NC(=O)N2C3CCC2c2n[nH]c(=O)cc2C3)cc1Cl (racemic) [Compound 43, (±)-N-(4-Chloro-5-cyanopyridin-2-yl)-3-oxo-3,5,6,7,8,9-hexahydro-2H-6,9-epiminocyclohepta[c]pyridazine-10-carboxamide]",IC50,[1],500 to 5000 nM
